From ChEMBL document CHEMBL1151464 (2008)
≈ marks a conversion by molar mass, not a printed value.

Tests used:
Format in all cases: functional
Pseudomonas aeruginosa [1] = assay: Antibacterial activity against Pseudomonas aeruginosa isolate 338 after 24 hrs by CLSI microdilution method; conditions: isolate 338, 24 h
Acinetobacter baumannii [2] = assay: Antibacterial activity against Acinetobacter baumannii isolate 887 after 24 hrs by CLSI microdilution method; conditions: isolate 887, 24 h
Pseudomonas aeruginosa [3] = assay: Antibacterial activity against Pseudomonas aeruginosa isolate 366 after 24 hrs by CLSI microdilution method; conditions: isolate 366, 24 h
Pseudomonas aeruginosa [4] = assay: Antibacterial activity against Pseudomonas aeruginosa isolate 353 after 24 hrs by CLSI microdilution method; conditions: isolate 353, 24 h
Pseudomonas aeruginosa [5] = assay: Antibacterial activity against Pseudomonas aeruginosa isolate 368 after 24 hrs by CLSI microdilution method; conditions: isolate 368, 24 h
Acinetobacter baumannii [6] = assay: Antibacterial activity against Acinetobacter baumannii isolate 929 after 24 hrs by CLSI microdilution method; conditions: isolate 929, 24 h
Pseudomonas aeruginosa [7] = assay: Antibacterial activity against Pseudomonas aeruginosa isolate 329 after 24 hrs by CLSI microdilution method; conditions: isolate 329, 24 h
Pseudomonas aeruginosa [8] = assay: Antibacterial activity against Pseudomonas aeruginosa isolate 340 after 24 hrs by CLSI microdilution method; conditions: isolate 340, 24 h
Pseudomonas aeruginosa [9] = assay: Antibacterial activity against Pseudomonas aeruginosa isolate 345 after 24 hrs by CLSI microdilution method; conditions: isolate 345, 24 h
Acinetobacter baumannii [10] = assay: Antibacterial activity against Acinetobacter baumannii isolate 932 expressing OXA-24 and OXA-51 beta-lactamase after 24 hrs by CLSI microdilution method; conditions: isolate 932, 24 h
Acinetobacter baumannii [11] = assay: Antibacterial activity against Acinetobacter baumannii isolate 928 after 24 hrs by CLSI microdilution method; conditions: isolate 928, 24 h
Acinetobacter baumannii [12] = assay: Antibacterial activity against Acinetobacter baumannii isolate 899 after 24 hrs by CLSI microdilution method; conditions: isolate 899, 24 h
Acinetobacter baumannii [13] = assay: Antibacterial activity against Acinetobacter baumannii isolate 908 after 24 hrs by CLSI microdilution method; conditions: isolate 908, 24 h
Pseudomonas aeruginosa [14] = assay: Antibacterial activity against Pseudomonas aeruginosa isolate 367 after 24 hrs by CLSI microdilution method; conditions: isolate 367, 24 h
Acinetobacter baumannii [15] = assay: Antibacterial activity against Acinetobacter baumannii isolate 918 after 24 hrs by CLSI microdilution method; conditions: isolate 918, 24 h
Acinetobacter baumannii [16] = assay: Antibacterial activity against Acinetobacter baumannii isolate 922 after 24 hrs by CLSI microdilution method; conditions: isolate 922, 24 h
Pseudomonas aeruginosa [17] = assay: Antibacterial activity against Pseudomonas aeruginosa isolate 331 after 24 hrs by CLSI microdilution method; conditions: isolate 331, 24 h
Acinetobacter baumannii [18] = assay: Antibacterial activity against Acinetobacter baumannii isolate 911 after 24 hrs by CLSI microdilution method; conditions: isolate 911, 24 h
Pseudomonas aeruginosa [19] = assay: Antibacterial activity against Pseudomonas aeruginosa isolate 334 after 24 hrs by CLSI microdilution method; conditions: isolate 334, 24 h
Pseudomonas aeruginosa [20] = assay: Antibacterial activity against Pseudomonas aeruginosa isolate 335 after 24 hrs by CLSI microdilution method; conditions: isolate 335, 24 h
Acinetobacter baumannii [21] = assay: Antibacterial activity against Acinetobacter baumannii isolate 931 after 24 hrs by CLSI microdilution method; conditions: isolate 931, 24 h
Acinetobacter baumannii [22] = assay: Antibacterial activity against Acinetobacter baumannii isolate 886 after 24 hrs by CLSI microdilution method; conditions: isolate 886, 24 h
Acinetobacter baumannii [23] = assay: Antibacterial activity against Acinetobacter baumannii isolate 923 after 24 hrs by CLSI microdilution method; conditions: isolate 923, 24 h
Pseudomonas aeruginosa [24] = assay: Antibacterial activity against Pseudomonas aeruginosa isolate 350 after 24 hrs by CLSI microdilution method; conditions: isolate 350, 24 h
Acinetobacter baumannii [25] = assay: Antibacterial activity against Acinetobacter baumannii isolate 926 after 24 hrs by CLSI microdilution method; conditions: isolate 926, 24 h
Pseudomonas aeruginosa [26] = assay: Antibacterial activity against Pseudomonas aeruginosa isolate 369 after 24 hrs by CLSI microdilution method; conditions: isolate 369, 24 h
Pseudomonas aeruginosa [27] = assay: Antibacterial activity against Pseudomonas aeruginosa isolate 356 after 24 hrs by CLSI microdilution method; conditions: isolate 356, 24 h
Pseudomonas aeruginosa [28] = assay: Antibacterial activity against Pseudomonas aeruginosa isolate 348 after 24 hrs by CLSI microdilution method; conditions: isolate 348, 24 h
Pseudomonas aeruginosa [29] = assay: Antibacterial activity against Pseudomonas aeruginosa isolate 361 after 24 hrs by CLSI microdilution method; conditions: isolate 361, 24 h
Acinetobacter baumannii [30] = assay: Antibacterial activity against Acinetobacter baumannii isolate 905 after 24 hrs by CLSI microdilution method; conditions: isolate 905, 24 h
Acinetobacter baumannii [31] = assay: Antibacterial activity against Acinetobacter baumannii isolate 927 after 24 hrs by CLSI microdilution method; conditions: isolate 927, 24 h
Acinetobacter baumannii [32] = assay: Antibacterial activity against Acinetobacter baumannii isolate 916 after 24 hrs by CLSI microdilution method; conditions: isolate 916, 24 h
Acinetobacter baumannii [33] = assay: Antibacterial activity against Acinetobacter baumannii isolate 883 after 24 hrs by CLSI microdilution method; conditions: isolate 883, 24 h
Pseudomonas aeruginosa [34] = assay: Antibacterial activity against Pseudomonas aeruginosa isolate 357 after 24 hrs by CLSI microdilution method; conditions: isolate 357, 24 h
Acinetobacter baumannii [35] = assay: Antibacterial activity against Acinetobacter baumannii isolate 909 after 24 hrs by CLSI microdilution method; conditions: isolate 909, 24 h
Acinetobacter baumannii [36] = assay: Antibacterial activity against Acinetobacter baumannii isolate 895 after 24 hrs by CLSI microdilution method; conditions: isolate 895, 24 h
Acinetobacter baumannii [37] = assay: Antibacterial activity against Acinetobacter baumannii isolate 882 after 24 hrs by CLSI microdilution method; conditions: isolate 882, 24 h
Acinetobacter baumannii [38] = assay: Antibacterial activity against Acinetobacter baumannii isolate 920 after 24 hrs by CLSI microdilution method; conditions: isolate 920, 24 h
Pseudomonas aeruginosa [39] = assay: Antibacterial activity against Pseudomonas aeruginosa isolate 376 after 24 hrs by CLSI microdilution method; conditions: isolate 376, 24 h
Acinetobacter baumannii [40] = assay: Antibacterial activity against Acinetobacter baumannii isolate 892 after 24 hrs by CLSI microdilution method; conditions: isolate 892, 24 h
Pseudomonas aeruginosa [41] = assay: Antibacterial activity against Pseudomonas aeruginosa isolate 360 after 24 hrs by CLSI microdilution method; conditions: isolate 360, 24 h
Pseudomonas aeruginosa [42] = assay: Antibacterial activity against Pseudomonas aeruginosa isolate 328 after 24 hrs by CLSI microdilution method; conditions: isolate 328, 24 h
Acinetobacter baumannii [43] = assay: Antibacterial activity against Acinetobacter baumannii isolate 912 after 24 hrs by CLSI microdilution method; conditions: isolate 912, 24 h
Pseudomonas aeruginosa [44] = assay: Antibacterial activity against Pseudomonas aeruginosa isolate 359 after 24 hrs by CLSI microdilution method; conditions: isolate 359, 24 h
Pseudomonas aeruginosa [45] = assay: Antibacterial activity against Pseudomonas aeruginosa isolate 362 after 24 hrs by CLSI microdilution method; conditions: isolate 362, 24 h
Acinetobacter baumannii [46] = assay: Antibacterial activity against Acinetobacter baumannii isolate 934 after 24 hrs by CLSI microdilution method; conditions: isolate 934, 24 h
Acinetobacter baumannii [47] = assay: Antibacterial activity against Acinetobacter baumannii isolate 893 after 24 hrs by CLSI microdilution method; conditions: isolate 893, 24 h
Pseudomonas aeruginosa [48] = assay: Antibacterial activity against Pseudomonas aeruginosa isolate 363 after 24 hrs by CLSI microdilution method; conditions: isolate 363, 24 h
Pseudomonas aeruginosa [49] = assay: Antibacterial activity against Pseudomonas aeruginosa isolate 358 after 24 hrs by CLSI microdilution method; conditions: isolate 358, 24 h
Pseudomonas aeruginosa [50] = assay: Antibacterial activity against Pseudomonas aeruginosa isolate 373 after 24 hrs by CLSI microdilution method; conditions: isolate 373, 24 h
Pseudomonas aeruginosa [51] = assay: Antibacterial activity against Pseudomonas aeruginosa isolate 364 after 24 hrs by CLSI microdilution method; conditions: isolate 364, 24 h
Acinetobacter baumannii [52] = assay: Antibacterial activity against Acinetobacter baumannii isolate 917 after 24 hrs by CLSI microdilution method; conditions: isolate 917, 24 h
Acinetobacter baumannii [53] = assay: Antibacterial activity against Acinetobacter baumannii isolate 890 after 24 hrs by CLSI microdilution method; conditions: isolate 890, 24 h
Acinetobacter baumannii [54] = assay: Antibacterial activity against Acinetobacter baumannii isolate 930 after 24 hrs by CLSI microdilution method; conditions: isolate 930, 24 h
Pseudomonas aeruginosa [55] = assay: Antibacterial activity against Pseudomonas aeruginosa isolate 326 after 24 hrs by CLSI microdilution method; conditions: isolate 326, 24 h
Acinetobacter baumannii [56] = assay: Antibacterial activity against Acinetobacter baumannii isolate 914 after 24 hrs by CLSI microdilution method; conditions: isolate 914, 24 h
Acinetobacter baumannii [57] = assay: Antibacterial activity against Acinetobacter baumannii isolate 906 after 24 hrs by CLSI microdilution method; conditions: isolate 906, 24 h
Pseudomonas aeruginosa [58] = assay: Antibacterial activity against Pseudomonas aeruginosa isolate 355 after 24 hrs by CLSI microdilution method; conditions: isolate 355, 24 h
Acinetobacter baumannii [59] = assay: Antibacterial activity against Acinetobacter baumannii isolate 900 after 24 hrs by CLSI microdilution method; conditions: isolate 900, 24 h

Structure (SMILES): C[C@@H](O)[C@H]1C(=O)N2C(C(=O)O)=C(S[C@@H]3CN[C@H](C(=O)N(C)C)C3)[C@H](C)[C@H]12 [MEROPENEM]
- MIC (Pseudomonas aeruginosa [1]): 1 µg/mL (≈ 2.61 µM)
- MIC (Acinetobacter baumannii [2]): 1 µg/mL (≈ 2.61 µM)
- MIC (Pseudomonas aeruginosa [3]): 0.5 µg/mL (≈ 1.3 µM)
- MIC (Pseudomonas aeruginosa [4]): 2 µg/mL (≈ 5.22 µM)
- MIC (Pseudomonas aeruginosa [5]): 0.25 µg/mL (≈ 0.652 µM)
- MIC (Acinetobacter baumannii [6]): 0.5 µg/mL (≈ 1.3 µM)
- MIC (Pseudomonas aeruginosa [7]): 0.5 µg/mL (≈ 1.3 µM)
- MIC (Pseudomonas aeruginosa [8]): 1 µg/mL (≈ 2.61 µM)
- MIC (Pseudomonas aeruginosa [9]): 1 µg/mL (≈ 2.61 µM)
- MIC (Acinetobacter baumannii [10]): 256 µg/mL (≈ 668 µM)
- MIC (Acinetobacter baumannii [11]): 2 µg/mL (≈ 5.22 µM)
- MIC (Acinetobacter baumannii [12]): 32 µg/mL (≈ 83.4 µM)
- MIC (Acinetobacter baumannii [13]): 2 µg/mL (≈ 5.22 µM)
- MIC (Pseudomonas aeruginosa [14]): 0.25 µg/mL (≈ 0.652 µM)
- MIC (Acinetobacter baumannii [15]): 0.25 µg/mL (≈ 0.652 µM)
- MIC (Acinetobacter baumannii [16]): 1 µg/mL (≈ 2.61 µM)
- MIC (Pseudomonas aeruginosa [17]): 0.12 µg/mL (≈ 0.313 µM)
- MIC (Acinetobacter baumannii [18]): 16 µg/mL (≈ 41.7 µM)
- MIC (Pseudomonas aeruginosa [19]): 1 µg/mL (≈ 2.61 µM)
- MIC (Pseudomonas aeruginosa [20]): 4 µg/mL (≈ 10.4 µM)
- MIC (Acinetobacter baumannii [21]): 2 µg/mL (≈ 5.22 µM)
- MIC (Acinetobacter baumannii [22]): 0.5 µg/mL (≈ 1.3 µM)
- MIC (Acinetobacter baumannii [23]): 0.5 µg/mL (≈ 1.3 µM)
- MIC (Pseudomonas aeruginosa [24]): 2 µg/mL (≈ 5.22 µM)
- MIC (Acinetobacter baumannii [25]): 32 µg/mL (≈ 83.4 µM)
- MIC (Pseudomonas aeruginosa [26]): 2 µg/mL (≈ 5.22 µM)
- MIC (Pseudomonas aeruginosa [27]): 2 µg/mL (≈ 5.22 µM)
- MIC (Pseudomonas aeruginosa [28]): 0.25 µg/mL (≈ 0.652 µM)
- MIC (Pseudomonas aeruginosa [29]): 0.25 µg/mL (≈ 0.652 µM)
- MIC (Acinetobacter baumannii [30]): 0.5 µg/mL (≈ 1.3 µM)
- MIC (Acinetobacter baumannii [31]): 0.12 µg/mL (≈ 0.313 µM)
- MIC (Acinetobacter baumannii [32]): 8 µg/mL (≈ 20.9 µM)
- MIC (Acinetobacter baumannii [33]): 1 µg/mL (≈ 2.61 µM)
- MIC (Pseudomonas aeruginosa [34]): 0.5 µg/mL (≈ 1.3 µM)
- MIC (Acinetobacter baumannii [35]): 1 µg/mL (≈ 2.61 µM)
- MIC (Acinetobacter baumannii [36]): 8 µg/mL (≈ 20.9 µM)
- MIC (Acinetobacter baumannii [37]): 1 µg/mL (≈ 2.61 µM)
- MIC (Acinetobacter baumannii [38]): 1 µg/mL (≈ 2.61 µM)
- MIC (Pseudomonas aeruginosa [39]): 16 µg/mL (≈ 41.7 µM)
- MIC (Acinetobacter baumannii [40]): 32 µg/mL (≈ 83.4 µM)
- MIC (Pseudomonas aeruginosa [41]): 0.25 µg/mL (≈ 0.652 µM)
- MIC (Pseudomonas aeruginosa [42]): 2 µg/mL (≈ 5.22 µM)
- MIC (Acinetobacter baumannii [43]): 4 µg/mL (≈ 10.4 µM)
- MIC (Pseudomonas aeruginosa [44]): 0.12 µg/mL (≈ 0.313 µM)
- MIC (Pseudomonas aeruginosa [45]): 0.5 µg/mL (≈ 1.3 µM)
- MIC (Acinetobacter baumannii [46]): 32 µg/mL (≈ 83.4 µM)
- MIC (Acinetobacter baumannii [47]): 2 µg/mL (≈ 5.22 µM)
- MIC (Pseudomonas aeruginosa [48]): 1 µg/mL (≈ 2.61 µM)
- MIC (Pseudomonas aeruginosa [49]): 16 µg/mL (≈ 41.7 µM)
- MIC (Pseudomonas aeruginosa [50]): 2 µg/mL (≈ 5.22 µM)
- MIC (Pseudomonas aeruginosa [51]): 0.12 µg/mL (≈ 0.313 µM)
- MIC (Acinetobacter baumannii [52]): 0.5 µg/mL (≈ 1.3 µM)
- MIC (Acinetobacter baumannii [53]): 1 µg/mL (≈ 2.61 µM)
- MIC (Acinetobacter baumannii [54]): 0.25 µg/mL (≈ 0.652 µM)
- MIC (Pseudomonas aeruginosa [55]): 16 µg/mL (≈ 41.7 µM)
- MIC (Acinetobacter baumannii [56]): 0.5 µg/mL (≈ 1.3 µM)
- MIC (Acinetobacter baumannii [57]): 1 µg/mL (≈ 2.61 µM)
- MIC (Pseudomonas aeruginosa [58]): 0.25 µg/mL (≈ 0.652 µM)
- MIC (Acinetobacter baumannii [59]): 0.5 µg/mL (≈ 1.3 µM)
